Data: ChEMBL document CHEMBL1145395, “De novo design of selective antibiotic peptides by incorporation of unnatural amino acids” (J Med Chem, 2007)
Values after ≈ are worked out from the molar mass of the structure shown. Active and inactive are the calls of the source. The rule behind the calls is not given here. Non-standard residues stand in square brackets, D forms with d. Residues, ends and D or L forms follow the SMILES beside them. ξ: configuration not given here. *: point of attachment. Pro(3ξ,4ξ-(CH2)4) = O=C(O)[C@H]1NCC2CCCCC21; Oic = O=C(O)[C@@H]1C[C@@H]2CCCC[C@@H]2N1; Phe(4-F) = N[C@@H](Cc1ccc(F)cc1)C(=O)O; Tic = O=C(O)[C@@H]1Cc2ccccc2CN1; Dap = NC[C@H](N)C(=O)O; NH(CH2)3NH2 = NCCCN*; βAla = NCCC(=O)O

Assays:
[1] = system: Bacillus subtilis; assay: Antibacterial activity against Bacillus subtilis ATCC 43223; type: functional
[2] = system: Staphylococcus aureus; assay: Antibacterial activity against methicillin/gentamicin/tetracycline resistant Staphylococcus aureus ATCC 33592; type: functional
[3] = system: Mycobacterium; assay: Antibacterial activity against Mycobacterium ranae ATCC 110; type: functional
[4] = system: Salmonella typhimurium; assay: Antibacterial activity against Salmonella Typhimurium ATCC 13311; type: functional, Salmonella enterica subsp. enterica serovar Typhimurium; settings: for MIC: Salmonella enterica
[5] = Toxicity to mouse RBC assessed as hemolytic activity at 100 uM; type: cell-based, Erythrocyte; settings: red blood cells, read-out: Activity

CC(=O)NCC(=O)N[C@@H](Cc1ccccc1)C(=O)N1Cc2ccccc2C[C@H]1C(=O)N1[C@H](C(=O)NCC(=O)N[C@@H](CCCCN)C(=O)N2Cc3ccccc3C[C@H]2C(=O)N2[C@H](C(=O)NCC(=O)N[C@@H](Cc3ccccc3)C(=O)N3Cc4ccccc4C[C@H]3C(=O)N3[C@H](C(=O)NCC(=O)N[C@@H](CCCCN)C(=O)N4Cc5ccccc5C[C@H]4C(=O)N[C@@H](CCCCN)C(=O)N[C@@H](CCCCN)C(=O)N[C@@H](CCCCN)C(=O)N[C@@H](CCCCN)C(=O)NCCCN)C[C@@H]4CCCC[C@@H]43)C[C@@H]3CCCC[C@@H]32)C[C@@H]2CCCC[C@@H]21 (Ac-GF[Tic][Oic]GK[Tic][Oic]GF[Tic][Oic]GK[Tic]KKKK-{NH(CH2)3NH2})
MIC [1]: 3 µM (≈ 7.49 µg/mL)
MIC [2]: 10 µM (≈ 25 µg/mL)
MIC [3]: 10 µM (≈ 25 µg/mL)
MIC [4]: 30 µM (≈ 74.9 µg/mL)

NCCCC[C@H](NC(=O)[C@H](CCCCN)NC(=O)[C@H](CCCCN)NC(=O)[C@H](CCCCN)NC(=O)[C@@H]1Cc2ccccc2CN1C(=O)[C@H](CCCCN)NC(=O)CNC(=O)[C@@H]1C[C@@H]2CCCC[C@@H]2N1C(=O)[C@@H]1Cc2ccccc2CN1C(=O)[C@H](Cc1ccccc1)NC(=O)CNC(=O)[C@@H]1C[C@@H]2CCCC[C@@H]2N1C(=O)[C@@H]1Cc2ccccc2CN1C(=O)[C@H](CCCCN)NC(=O)CNC(=O)[C@@H]1C[C@@H]2CCCC[C@@H]2N1C(=O)[C@@H]1Cc2ccccc2CN1C(=O)[C@H](Cc1ccccc1)NC(=O)CN)C(N)=O (H-GF[Tic][Oic]GK[Tic][Oic]GF[Tic][Oic]GK[Tic]KKKK-NH2)
MIC [1]: 1 µM (≈ 2.4 µg/mL)
MIC [2]: 10 µM (≈ 24 µg/mL)
MIC [3]: 10 µM (≈ 24 µg/mL)
MIC [4]: 3 µM (≈ 7.2 µg/mL)

CC(=O)NCCC(=O)N[C@@H](Cc1ccc(F)cc1)C(=O)N1Cc2ccccc2C[C@H]1C(=O)N1CC2CCCCC2[C@H]1C(=O)NCCC(=O)N[C@@H](CN)C(=O)N1Cc2ccccc2C[C@H]1C(=O)N1CC2CCCCC2[C@H]1C(=O)NCCC(=O)N[C@@H](Cc1ccc(F)cc1)C(=O)N1Cc2ccccc2C[C@H]1C(=O)N1CC2CCCCC2[C@H]1C(=O)NCCC(=O)N[C@@H](CN)C(=O)N1Cc2ccccc2C[C@H]1C(=O)N[C@@H](CN)C(=O)N[C@@H](CN)C(=O)N[C@@H](CN)C(=O)N[C@@H](CN)C(N)=O (stereo partly specified) (Ac-[βAla][Phe(4-F)][Tic][Pro(3ξ,4ξ-(CH2)4)][βAla][Dap][Tic][Pro(3ξ,4ξ-(CH2)4)][βAla][Phe(4-F)][Tic][Pro(3ξ,4ξ-(CH2)4)][βAla][Dap][Tic][Dap][Dap][Dap][Dap]-NH2)
MIC [1]: 0.3 µM (≈ 0.684 µg/mL)
MIC [2]: 30 µM (≈ 68.4 µg/mL)
MIC [3]: 100 µM (≈ 228 µg/mL)
MIC [4]: 3 µM (≈ 6.84 µg/mL)

CC(=O)NCC(=O)N[C@@H](Cc1ccccc1)C(=O)N1CC2CCCCC2[C@H]1C(=O)NCC(=O)N[C@@H](CCCCN)C(=O)N1CC2CCCCC2[C@H]1C(=O)NCC(=O)N[C@@H](Cc1ccccc1)C(=O)N1CC2CCCCC2[C@H]1C(=O)NCC(=O)N[C@@H](CCCCN)C(=O)N[C@@H](CCCCN)C(=O)N[C@@H](CCCCN)C(=O)N[C@@H](CCCCN)C(=O)N[C@@H](CCCCN)C(N)=O (stereo partly specified) (Ac-GF[Pro(3ξ,4ξ-(CH2)4)]GK[Pro(3ξ,4ξ-(CH2)4)]GF[Pro(3ξ,4ξ-(CH2)4)]GKKKKK-NH2)
MIC [1]: 3 µM (≈ 5.41 µg/mL)
MIC [3]: 100 µM (≈ 180 µg/mL)
MIC [4]: 100 µM (≈ 180 µg/mL)

CC(=O)NCC(=O)N[C@@H](Cc1ccccc1)C(=O)NCC(=O)N1CC2CCCCC2[C@H]1C(=O)NCC(=O)N[C@@H](CCCCN)C(=O)NCC(=O)N1CC2CCCCC2[C@H]1C(=O)NCC(=O)N[C@@H](Cc1ccccc1)C(=O)NCC(=O)N1CC2CCCCC2[C@H]1C(=O)NCC(=O)N[C@@H](CCCCN)C(=O)NCC(=O)N[C@@H](CCCCN)C(=O)N[C@@H](CCCCN)C(=O)N[C@@H](CCCCN)C(=O)N[C@@H](CCCCN)C(N)=O (stereo partly specified) (Ac-GFG[Pro(3ξ,4ξ-(CH2)4)]GKG[Pro(3ξ,4ξ-(CH2)4)]GFG[Pro(3ξ,4ξ-(CH2)4)]GKGKKKK-NH2)
MIC [1]: 30 µM (≈ 61 µg/mL)
MIC [2]: 3 µM (≈ 6.1 µg/mL)
MIC [3]: 100 µM (≈ 203 µg/mL)

CSCC[C@H](NC(=O)[C@H](CC(C)C)NC(=O)[C@H](CCC(=O)O)NC(=O)[C@@H]1C2CCCCC2CN1C(=O)[C@@H]1Cc2ccccc2CN1C(=O)[C@H](CCCCN)NC(=O)CNC(=O)[C@H](CC(C)C)NC(=O)[C@H](CCCCN)NC(=O)CNC(=O)[C@@H]1C2CCCCC2CN1C(=O)[C@@H]1Cc2ccccc2CN1C(=O)[C@H](CO)NC(=O)[C@H](CC(N)=O)NC(=O)[C@H](CCSC)NC(=O)[C@H](CC(C)C)NC(=O)[C@@H](N)CCC(=O)O)C(=O)N[C@@H](CO)C(N)=O (stereo partly specified) (H-ELMNS[Tic][Pro(3ξ,4ξ-(CH2)4)]GKLGK[Tic][Pro(3ξ,4ξ-(CH2)4)]ELMS-NH2)
Activity [2]: inactive
hemolysis at 100 µM [5]: 23%
Activity ([4]; Salmonella enterica subsp. enterica serovar Typhimurium): inactive

CC(C)C[C@H](NC(=O)CNC(=O)[C@H](CCCCN)NC(=O)CN)C(=O)N1Cc2ccccc2C[C@H]1C(=O)N1CC2CCCCC2[C@H]1C(=O)N[C@@H](Cc1ccccc1)C(=O)N[C@@H](CCCCN)C(=O)N1Cc2ccccc2C[C@H]1C(=O)N1CC2CCCCC2[C@H]1C(=O)N[C@@H](CCCCN)C(=O)N[C@@H](Cc1ccccc1)C(=O)N1Cc2ccccc2C[C@H]1C(=O)N1CC2CCCCC2[C@H]1C(=O)N[C@@H](Cc1ccccc1)C(=O)N[C@@H](CCCCN)C(=O)N1Cc2ccccc2C[C@H]1C(=O)N1CC2CCCCC2[C@H]1C(=O)N[C@@H](CCCCN)C(=O)N[C@@H](Cc1ccccc1)C(=O)N1Cc2ccccc2C[C@H]1C(=O)N1CC2CCCCC2[C@H]1C(=O)N[C@@H](Cc1ccccc1)C(=O)N[C@@H](CCCCN)C(=O)N1Cc2ccccc2C[C@H]1C(=O)N1CC2CCCCC2[C@H]1C(=O)N[C@@H](Cc1ccccc1)C(=O)N[C@@H](CCCCN)C(=O)N[C@@H](CCCNC(=N)N)C(N)=O (stereo partly specified) (H-GKGL[Tic][Pro(3ξ,4ξ-(CH2)4)]FK[Tic][Pro(3ξ,4ξ-(CH2)4)]KF[Tic][Pro(3ξ,4ξ-(CH2)4)]FK[Tic][Pro(3ξ,4ξ-(CH2)4)]KF[Tic][Pro(3ξ,4ξ-(CH2)4)]FK[Tic][Pro(3ξ,4ξ-(CH2)4)]FKR-NH2)
MIC [1]: 3 µM (≈ 12.1 µg/mL)
MIC [2]: 30 µM (≈ 121 µg/mL)
MIC [4]: 100 µM (≈ 404 µg/mL)

CC(C)C[C@H](NC(=O)CNC(=O)[C@H](CCCCN)NC(=O)CN)C(=O)N1Cc2ccccc2C[C@H]1C(=O)N1[C@H](C(=O)NCC(=O)N[C@@H](CCCNC(=N)N)C(=O)N2Cc3ccccc3C[C@H]2C(=O)N2[C@H](C(=O)NCC(=O)N[C@@H](Cc3ccccc3)C(=O)N3Cc4ccccc4C[C@H]3C(=O)N3[C@H](C(=O)NCC(=O)N[C@@H](CCCNC(=N)N)C(=O)N4Cc5ccccc5C[C@H]4C(=O)N4[C@H](C(=O)NCC(=O)N[C@@H](Cc5ccccc5)C(=O)N5Cc6ccccc6C[C@H]5C(=O)N5[C@H](C(=O)NCC(=O)N[C@@H](CCCNC(=N)N)C(=O)N6Cc7ccccc7C[C@H]6C(=O)N6[C@H](C(=O)NCC(=O)N[C@@H](CCCCN)C(=O)N[C@@H](CCCNC(=N)N)C(N)=O)C[C@@H]7CCCC[C@@H]76)C[C@@H]6CCCC[C@@H]65)C[C@@H]5CCCC[C@@H]54)C[C@@H]4CCCC[C@@H]43)C[C@@H]3CCCC[C@@H]32)C[C@@H]2CCCC[C@@H]21 (H-GKGL[Tic][Oic]GR[Tic][Oic]GF[Tic][Oic]GR[Tic][Oic]GF[Tic][Oic]GR[Tic][Oic]GKR-NH2)
MIC [1]: 1 µM (≈ 3.62 µg/mL)
MIC [4]: 100 µM (≈ 362 µg/mL)
